24 molecules from PubChem BioAssay AID330 (DTP/NCI, 2004) can be followed below.

Molecules are shown by their SMILES. Several values for one entry are separate records, joined by “and”; a condition that tells them apart may be missing. Equal entries are not always repeated. Inconclusive results and toxic doses are left out. Peptide text beside a SMILES is read from it.

The test concerns P388 leukemia ip, CD2F1 mice, survival T/C. Nature of the test: NCI In Vivo Anticancer Drug Screen. Data for tumor model P388 Leukemia (intraperitoneal) in CD2F1 (CDF1) mice. Particulars: endpoint: median survival time, higher = longer survival. The gist of the method:
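Mice carrying the transplanted tumor received test compound or vehicle. Survival was recorded in each group, and the value is the treated-group measurement divided by that of the vehicle-treated control group.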

The mark [1] stands for this setting: dose: 25.0 mg/kg/injection, schedule: Q01DX009 (ip), vehicle: saline with Tween-80.
Setting [2] is: dose: 50.0 mg/kg/injection, schedule: Q01DX009 (ip), vehicle: saline with Tween-80.
The mark [3] stands for this setting: dose: 50.0 mg/kg/injection, schedule: Q01DX005 (ip), vehicle: Klucel (hydroxypropylcellulose) (HPC).
Where [4] appears, read: dose: 100.0 mg/kg/injection, schedule: Q01DX005 (ip), vehicle: Klucel (hydroxypropylcellulose) (HPC).
Where [5] appears, read: dose: 50.0 mg/kg/injection, schedule: Q01DX005 (ip), vehicle: saline with Tween-80.
Setting [6] is: dose: 100.0 mg/kg/injection, schedule: Q01DX005 (ip), vehicle: saline with Tween-80.
[7] abbreviates: dose: 50.0 mg/kg/injection, schedule: Q01DX009 (ip), vehicle: Klucel (hydroxypropylcellulose) (HPC).
[8] abbreviates: dose: 100.0 mg/kg/injection, schedule: Q01DX009 (ip), vehicle: Klucel (hydroxypropylcellulose) (HPC).
Setting [9] is: dose: 200.0 mg/kg/injection, schedule: Q01DX009 (ip), vehicle: Klucel (hydroxypropylcellulose) (HPC).
[10] abbreviates: dose: 60.0 mg/kg/injection, schedule: Q01DX005 (ip), vehicle: saline.
The mark [11] stands for this setting: dose: 120.0 mg/kg/injection, schedule: Q01DX005 (ip), vehicle: saline.
Where [12] appears, read: dose: 60.0 mg/kg/injection, schedule: Q01DX005 (ip), vehicle: Klucel (hydroxypropylcellulose) (HPC).
Where [13] appears, read: dose: 120.0 mg/kg/injection, schedule: Q01DX005 (ip), vehicle: Klucel (hydroxypropylcellulose) (HPC).
[14] abbreviates: dose: 60.0 mg/kg/injection, schedule: Q01DX005 (ip), vehicle: saline with Tween-80.
The mark [15] stands for this setting: dose: 120.0 mg/kg/injection, schedule: Q01DX005 (ip), vehicle: saline with Tween-80.
Setting [16] is: dose: 200.0 mg/kg/injection, schedule: Q01DX005 (ip), vehicle: Klucel (hydroxypropylcellulose) (HPC).

`C[CH2][Pb]([Br])([CH2]C)[CH2]C`: the T/C (dose: 3.12 mg/kg/injection, schedule: Q01DX009 (ip), vehicle: saline with Tween-80) was 105 % of control and 97 % of control; the T/C (dose: 6.25 mg/kg/injection, schedule: Q01DX009 (ip), vehicle: saline with Tween-80) was 103 % of control and 107 % of control; the T/C (dose: 12.5 mg/kg/injection, schedule: Q01DX009 (ip), vehicle: saline with Tween-80) was 113 % of control and 114 % of control; the T/C under setting [1] was 106 % of control; the T/C under setting [2] is 107 % of control.
`O=[N+]([O-])c1ccccc1C(Nc1nncs1)Nc1nncs1`: the T/C runs as follows: under setting [3], 102 % of control; under setting [4], 102 % of control and 121 % of control.
Regarding `COC1C(CO)OC(n2c3c(Cl)cccc3c3c4c(c5c6cccc(Cl)c6[nH]c5c32)C(=O)NC4=O)C(O)C1O` (stereo not given), the T/C reads like this: (dose: 25.0 mg/kg/injection, schedule: Q01DX005 (ip), vehicle: saline with Tween-80) 155 % of control; (dose: 50.0 mg/kg/injection, schedule: Q01DX005 (ip), vehicle: distilled water + Tween-80) 152 % of control; under setting [5], 155 % of control; (dose: 100.0 mg/kg/injection, schedule: Q01DX005 (ip), vehicle: distilled water + Tween-80) 158 % of control; under setting [6], 155 % of control; (dose: 200.0 mg/kg/injection, schedule: Q01DX005 (ip), vehicle: distilled water + Tween-80) 152 % of control. The T/C (dose: 200.0 mg/kg/injection, schedule: Q01DX005 (ip), vehicle: saline with Tween-80) is 159 % of control and the T/C (dose: 400.0 mg/kg/injection, schedule: Q01DX005 (ip), vehicle: saline with Tween-80) was 182 % of control.
`Nc1ccccc1N1C(c2ccccc2)=CC(=O)N2CCN=C21`: the T/C under setting [7] is 90 % of control, the T/C under setting [8] was 101 % of control and the T/C under setting [9] was 95 % of control.
`CC(O)C(N)C(=O)NC(Cc1ccc(O)cc1)C(=O)NC(CCCCN)C(=O)O` (stereo not drawn) (H-Thr-Tyr-Lys-OH; configuration not given here): the T/C runs as follows: (dose: 50.0 mg/kg/injection, schedule: Q01DX005 (ip), vehicle: saline) 101 % of control; (dose: 100.0 mg/kg/injection, schedule: Q01DX005 (ip), vehicle: saline) 101 % of control; (dose: 200.0 mg/kg/injection, schedule: Q01DX005 (ip), vehicle: saline) 106 % of control.
Regarding `CCO/C=C(/C#N)C(=O)OC`, the T/C is 100 % of control (dose: 100.0 mg/kg/injection, schedule: Q04DX002 (ip), vehicle: saline); 101 % of control (dose: 200.0 mg/kg/injection, schedule: Q04DX002 (ip), vehicle: saline); 100 % of control (dose: 400.0 mg/kg/injection, schedule: Q04DX002 (ip), vehicle: saline).
Consider `ClC1=NC(Cl)C(Cl)=N/C1=N\c1ncn[nH]1` (stereo not given), for which the T/C runs as follows: (dose: 4.4 mg/kg/injection, schedule: Q04DX003 (ip), vehicle: saline with Tween-80) 100 % of control; (dose: 6.6 mg/kg/injection, schedule: Q04DX003 (ip), vehicle: saline with Tween-80) 100 % of control; (dose: 10.0 mg/kg/injection, schedule: Q04DX003 (ip), vehicle: saline with Tween-80) 90 % of control; (dose: 15.0 mg/kg/injection, schedule: Q04DX003 (ip), vehicle: saline with Tween-80) 104 % of control.
For `CCN(CC)P1(=O)C=C(C)C2C1C1C=C(C)C2P1(=O)N(CC)CC` (stereo not given), the T/C was 108 % of control under setting [10]; 101 % of control under setting [11]; 102 % of control (dose: 240.0 mg/kg/injection, schedule: Q01DX005 (ip), vehicle: saline).
Regarding `O=C1S/C(=C2\C(=O)N(CN3CCCCC3)c3ccccc32)C(=O)N1CN1CCCCC1`, the T/C by setting is: under setting [12], 99 % of control; under setting [13], 96 % of control; (dose: 240.0 mg/kg/injection, schedule: Q01DX005 (ip), vehicle: Klucel (hydroxypropylcellulose) (HPC)) 92 % of control.
On to `CCCCOC(=O)NC(=O)c1cc2cc(Cl)cc(Cl)c2oc1=O`, for which the T/C is 90 % of control under setting [5] and 91 % of control under setting [6].
Consider `CCCc1c(-c2ccccc2)nc(N)nc1-c1nc(N)nc(-c2ccccc2)c1CCC`, for which the T/C by setting is: under setting [10], 100 % of control; under setting [11], 95 % of control.
`CCOP(=S)(O/C(=C/Cl)c1cc(Cl)c(Cl)cc1Cl)c1ccccc1` (stereo not given): the T/C was 92 % of control under setting [7], 95 % of control under setting [8] and 96 % of control under setting [9].
As to `CCCCCCC(O)C/C=C\CCCCCCc1c(C(=O)OC)[nH]c(=S)[nH]c1=O` (stereo not given), the T/C by setting is: under setting [14], 94 % of control; under setting [15], 97 % of control.
On to `C=CC(C)(C)N1C(=O)C(C(C)=O)=C(O)C1Cc1c[nH]c2ccccc12` (stereo not given), for which the T/C was 99 % of control (dose: 8.75 mg/kg/injection, schedule: Q01DX005 (ip), vehicle: Klucel (hydroxypropylcellulose) (HPC)); 99 % of control (dose: 17.5 mg/kg/injection, schedule: Q01DX005 (ip), vehicle: Klucel (hydroxypropylcellulose) (HPC)); 97 % of control (dose: 35.0 mg/kg/injection, schedule: Q01DX005 (ip), vehicle: Klucel (hydroxypropylcellulose) (HPC)).
With `CCNCc1c2c(O)c3c(O)c(C)c4c(c3c1O)C(=O)C(C)(O/C=C/C(OC)C(C)C(OC(C)=O)C(C)C(O)C(C)C(O)C(C)/C=C/C=C(/C)C(=O)N2)O4` (stereo not given), the T/C (dose: 25.0 mg/kg/injection, schedule: Q01DX009 (ip), vehicle: other) was 89 % of control; the T/C (dose: 50.0 mg/kg/injection, schedule: Q01DX009 (ip), vehicle: other) is 89 % of control; the T/C (dose: 100.0 mg/kg/injection, schedule: Q01DX009 (ip), vehicle: other) is 89 % of control; the T/C (dose: 200.0 mg/kg/injection, schedule: Q01DX009 (ip), vehicle: other) is 89 % of control; the T/C (dose: 400.0 mg/kg/injection, schedule: Q01DX009 (ip), vehicle: other) was 90 % of control.
Take `COC(=O)NC(NC(=O)OC)C(F)(F)C(NC(=O)OC)NC(=O)OC`: the T/C is 96 % of control under setting [12] and 95 % of control under setting [13].
For `CCOc1ccc(-c2nc(Cl)nc(Cl)n2)c2ccccc12` the same measures were 104 % of control and 111 % of control.
As for `Cc1cc(N)nc(=O)n1COCCOCc1ccccc1`, the T/C reads like this: (dose: 100.0 mg/kg/injection, schedule: Q04DX002 (ip), vehicle: Klucel (hydroxypropylcellulose) (HPC)) 103 % of control; (dose: 200.0 mg/kg/injection, schedule: Q04DX002 (ip), vehicle: Klucel (hydroxypropylcellulose) (HPC)) 106 % of control; (dose: 400.0 mg/kg/injection, schedule: Q04DX002 (ip), vehicle: Klucel (hydroxypropylcellulose) (HPC)) 98 % of control.
With `COc1ccc(COc2ccc(C(=O)CCN3CCOCC3)cc2)cc1`, the T/C is 99 % of control under setting [3], 99 % of control under setting [4] and 99 % of control under setting [16].
For `CCCCCCCCCCCC(=O)OC/C=C/COC(=O)c1ccccc1`, the T/C was 100 % of control under setting [7], 108 % of control under setting [8] and 96 % of control under setting [9].
As for `CC(C)SC(=S)S(=O)(=O)c1ccc(Cl)cc1`, the T/C reads like this: under setting [1], 104 % of control and 110 % of control; under setting [2], 107 % of control (2×) and 111 % of control; (dose: 100.0 mg/kg/injection, schedule: Q01DX009 (ip), vehicle: saline with Tween-80) 104 % of control and 114 % of control and 121 % of control.
As for `CCCCCCCCCCCCCCCCC1CCCC1C1CCCC1` (stereo not given), the T/C by setting is: (dose: 12.5 mg/kg/injection, schedule: Q01DX001 (ip), vehicle: saline with Tween-80) 104 % of control; (dose: 25.0 mg/kg/injection, schedule: Q01DX001 (ip), vehicle: saline with Tween-80) 104 % of control; (dose: 50.0 mg/kg/injection, schedule: Q01DX001 (ip), vehicle: saline with Tween-80) 104 % of control.
Take `OCCOc1ccc(OCCO)c2ccccc12`: the T/C is 103 % of control under setting [3], 104 % of control under setting [4] and 100 % of control under setting [16].
Turning to `Cc1cccc(/C(=C/c2ccc([N+](=O)[O-])cc2)C(=O)Nc2ccc(S(=O)(=O)F)cc2)c1`, the T/C reads like this: under setting [14], 93 % of control; under setting [15], 98 % of control.
